Reference: patent publication US5733526A, “Hydrocarbon oil/fluorochemical preparations and methods of use” (priority 1995, dated 1998)
Each block holds one molecule with its values, some of them ahead of it.

How the values were obtained:
[1] = cited from earlier work; for Log Po/w: octanol/water
[2] = Micelle formation in perfluorooctanes by FTIR (C-H stretching frequency); assay type: physicochemical; conditions: in F-octanes
Procedure: A series of solutions of CF3 (CF2) 7 (CH2) 15 CH3 (F8H16; 0.02 mol/L to 0.2 mol/L) were prepared in F-octanes (purity≥98%) and the frequency of the carbon to hydrogen (--C--H) stretching mode (T=50° C.) measured using FTIR (Fourier Transform Infrared Spectroscopy). The formation of F8H16 micelles in a fluorocarbon continuous phase results in the transfer of the F8H16 hydrocarbon groups from a fluorocarbon rich environment in the molecular solution to a hydrocarbon rich environment at the interior of the micelles. The occurrence of this phase change can be measured as a change in the FTIR stretching frequency for the carbon-hydrogen bonds in the --CH2 groups of the FmHn molecules. […] The inflection point in the curve confirmed the existence of F8H16 micelles and was used to define the critical micelle concentration at about 0.05 mol/L.
A series of solutions of CF3 (CF2) 5 (CH2) 13 CH3 (F6H14; 0.02 mol/L to 0.2 mol/L) were prepared in F-octanes (purity≥98%) and the frequency of the carbon to hydrogen (--C--H) stretching mode (T=25° C.) measured using FTIR. The formation of F6H14 micelles was measured as a change in the FTIR stretching frequency for the carbon-hydrogen bonds in the --CH2 groups of the FmHn molecules. […] The inflection point in the curve confirmed the existence of F6H14 micelles and was used to define the critical micelle concentration at about 0.1 mol/L.

[3] = Titration of hydrocarbon oil into F-octanes until phase separation; solubilization by diblock dispersing agent; conditions: for amount of hydrocarbon oil at which phase separation occurred: titrated into F-Octanes (8.82 g), before dispersing agent

SMILES: CCCCC(CC)COC(=O)c1ccc(N(C)C)cc1 (stereo not drawn) [^14 C-padimate-o]
Octanol/water partition coefficient Po/w [1]: 3.98 × 10^6

SMILES: COc1ccc(C(=O)CC(=O)c2ccc(C(C)(C)C)cc2)cc1 [^3 H-parsol 1789]
Octanol/water partition coefficient Po/w [1]: 5.0 × 10^6 | Log Po/w [1]: 6.7

SMILES: CC(C)(C)NCC(O)COc1cccc2c1CCCC2=O (stereo not drawn) [^14 C-bunolol]
Octanol/water partition coefficient Po/w [1]: 2.51 × 10^2

SMILES: FC(F)(F)C(Cl)Br (stereo not drawn) [halothane]
Octanol/water partition coefficient Po/w [1]: 2.00 × 10^2 | Log Po/w [1]: 2.30

SMILES: CCCCNc1ccc(C(=O)OCCN(C)C)cc1 [tetracaine]
Octanol/water partition coefficient Po/w [1]: 79.4

SMILES: CCCCCCCCCCCCCCCCC(F)(F)C(F)(F)C(F)(F)C(F)(F)C(F)(F)C(F)(F)C(F)(F)C(F)(F)F [Example F8H16, 1-(F-octyl)hexadecane]
critical micelle concentration ([2]; T=50° C.): about 0.05 mol/L

amount of hydrocarbon oil at which phase separation occurred [3]: 1.70 mL | solubilization in F-Octanes ([3]; with F8H16 (7.82%, w/v)): 36.5 %, v/v
SMILES: CCCCCC [n-hexane]

SMILES: COC(=O)c1ccccc1O [methyl salicylate]
amount of hydrocarbon oil at which phase separation occurred [3]: 0.01 to 0.02 mL | solubilization in F-Octanes ([3]; with F6H14 (17.3%, w/v)): 2.2 %, v/v

SMILES: Clc1cccc(Cl)c1N=C1NCCN1 [^3 H-clonidine]
Octanol/water partition coefficient Po/w [1]: 25.1

SMILES: CCCCCCCCCCCCCCC(F)(F)C(F)(F)C(F)(F)C(F)(F)C(F)(F)C(F)(F)F [Example F6H14]
critical micelle concentration ([2]; T=25° C.): about 0.1 mol/L

SMILES: CC(=O)[C@@]1(O)CC[C@H]2[C@@H]3C[C@H](C)C4=CC(=O)C=C[C@]4(C)[C@@]3(F)[C@@H](O)C[C@@]21C [^3 H-fluorometholone]
Octanol/water partition coefficient Po/w [1]: 1.26 × 10^2
